Values quoted from earlier work in patent US4303671A, “Albumin stabilized prostacyclin” (priority 1980, dated 1981).

How the values were obtained:
[1] = FEBS Letters 82:321-324 (1977)
[2] = human plasma and human serum albumin; FASEB Meeting abstract, 1980
[3] = under acid conditions, including at physiological pH's
[4] = test system: blood platelet aggregation; details: at the time of its discovery
[5] = kept in whole blood or plasma; The Lancet, July 29, 1978

Row | stabilization of thromboxane A2 by albumin (in words) [1] | stabilization by albumin (in words) [2] | chemical stability (in words) [3] | Structure (SMILES) | potency to inhibit blood platelet aggregation (in words) [4] | protection against degradation (in words) [5]
1 | ability to stabilize thromboxane A2 |  |  | CCCCC[C@H](O)/C=C/[C@H]1O[C@H]2C[C@H](O2)[C@@H]1C/C=C\CCCC(=O)O [thromboxane A2] |  | 
2 |  | albumin stabilizes prostacyclin | spontaneously decomposes to 6-oxo-PGF1α | CCCCC[C@H](O)/C=C/[C@@H]1[C@H]2C/C(=C/CCCC(=O)O)O[C@H]2C[C@H]1O [prostacyclin, 9-deoxy-6,9α-epoxy-(5Z)-5,6-didehydro-PGF1] | most potent prostaglandin-related substance effective to inhibit blood platelet aggregation | probably protected against degradation when kept in whole blood or plasma
